US8937062B2, “Compositions and methods for treating, reducing, ameliorating, or preventing infections caused by antibacterial drug-resistant bacteria” (Bausch & Lomb Incorporated, priority 2007, dated 2015)
Values after ≈ are worked out from the molar mass of the structure shown.

Tests used:
[1] = system: APC-resistant Haemophilus influenza.; assay: MIC90, agar plate dilution method (NCCLS), Table 2; type: cell-based; conditions: APC-resistant Haemophilus influenza., 10 isolates
Description: (§1) The MIC90 values for this test were determined by the agar plate dilution method according to the National Committee for Clinical Laboratory Standards (“NCCLS”).

[2] = system: GM-resistant P. aeruginosa; assay: MIC90, agar plate dilution method (NCCLS), Table 2; type: cell-based; conditions: 10 isolates
Description: as §1

GM-resistant S. aureus = assay: MIC90, agar plate dilution method (NCCLS), Table 2; type: cell-based; conditions: 10 isolates
Description: as §1

[3] = system: OFLX-resistant Enterobacteriaceae; assay: MIC90, agar plate dilution method (NCCLS), Table 2; type: cell-based; conditions: OFLX-resistant Enterobacteriaceae, 10 isolates
Description: as §1

OFLX-resistant S. aureus = assay: MIC90, agar plate dilution method (NCCLS), Table 2; type: cell-based; conditions: 10 isolates
Description: as §1

[4] = system: PCG-resistant S. pneumoniae; assay: MIC90, agar plate dilution method (NCCLS), Table 2; type: cell-based; conditions: 10 isolates
Description: as §1

[5] = system: methicillin-resistant S. aureus; assay: MIC90, Japanese Society of Chemotherapy guidelines (1993), Table 3; type: cell-based
Description: (§2) In a second test, compounds having Formulae IV and V, their racemic mixture, and OFLX were tested in vitro against S. aureus strains that are resistant to methicillin or penicillin. The test was conducted according to the guidelines of the Japanese Society of Chemotherapy (1993).

[6] = system: penicillin-resistant S. aureus; assay: as above; type: cell-based
Description: as §2

[7] = system: E. cloacae, extended-spectrum β-lactamase positive; assay: MIC90, broth microdilution (CLSI M7-A7), Table 4; type: cell-based; conditions: 15 isolates
Description: (§3) The MIC90 values were determined according to the broth microdilution method outlined in the Clinical and Laboratory Standards Institute Approved Standard M7-A7 (2006).

[8] = system: H. influenzae, β-lactamase positive, ampicillin-resistant; assay: MIC90, broth microdilution (CLSI M7-A7), Table 4; type: cell-based; conditions: 25 isolates
Description: as §3

[9] = system: H. influenzae, β-lactamase positive; assay: MIC90, broth microdilution (CLSI M7-A7), Table 4; type: cell-based; conditions: 53 isolates
Description: as §3

[10] = system: S. aureus, methicillin- and ciprofloxacin-resistant; assay: MIC90, broth microdilution (CLSI M7-A7), Table 4; type: cell-based; conditions: 24 isolates
Description: as §3

[11] = system: S. aureus, methicillin-resistant and ciprofloxacin-sensitive; assay: MIC90, broth microdilution (CLSI M7-A7), Table 4; type: cell-based; conditions: 25 isolates
Description: as §3

[12] = system: S. aureus, vancomycin-intermediately resistant; assay: MIC90, broth microdilution (CLSI M7-A7), Table 4; type: cell-based; conditions: 23 isolates
Description: as §3

[13] = system: S. aureus, vancomycin-resistant; assay: MIC90, broth microdilution (CLSI M7-A7), Table 4; type: cell-based; conditions: 3 isolates
Description: as §3

[14] = system: S. epidermidis, methicillin-resistant; assay: MIC90, broth microdilution (CLSI M7-A7), Table 4; type: cell-based; conditions: 64 isolates
Description: as §3

[15] = system: S. pneumoniae, levofloxacin-resistant; assay: MIC90, broth microdilution (CLSI M7-A7), Table 4; type: cell-based; conditions: 25 isolates
Description: as §3

[16] = system: S. pneumoniae, penicillin-intermediately resistant; assay: MIC90, broth microdilution (CLSI M7-A7), Table 4; type: cell-based; conditions: 26 isolates
Description: as §3

[17] = system: S. pneumoniae, penicillin-resistant; assay: MIC90, broth microdilution (CLSI M7-A7), Table 4; type: cell-based; conditions: 26 isolates
Description: as §3

[18] = system: Methicillin-Resistant S. aureus Isolates; assay: In vitro anti-bacterial activity, fourth test, Table 5; type: cell-based, Staphylococcus aureus
Description: In a fourth test, the anti-bacterial activity of the compound having Formula IV was tested against some methicillin-resistant S. aureus bacteria strains and compared to the anti-bacterial activity of three commercially available antibiotics: nadifloxacin (“NDFX”), ofloxacin (“OFLX”), and sparfloxacin (“SPFX”).

[19] = system: Ofloxacin-resistant Enterobacteriaceae; assay: organism not typed; type: cell-based; conditions: Ofloxacin-resistant Enterobacteriaceae, clinical isolates, fifth test
Description: (§4) As disclosed above, most of these bacteria strains are also relevant to infections of the ear and upper respiratory tract.

[20] = system: Gentamicin-resistant Pseudomonas aeruginosa; assay: In vitro anti-bacterial activity, resistant clinical isolates, fifth test, Table 6; type: cell-based
Description: as §4

[21] = system: Gentamicin-resistant Staphylococcus aureus; assay: as above; type: cell-based
Description: as §4

[22] = system: Ofloxacin-resistant Staphylococcus aureus; assay: as above; type: cell-based
Description: as §4

[23] = system: Penicillin-resistant Streptococcus pneumoniae; assay: as above; type: cell-based
Description: as §4

[24] = system: S. aureus Clinical Isolates; assay: In vitro activity against clinical isolates, sixth test, Table 7; type: cell-based; conditions: 49 isolates
[25] = system: S. pneumoniae Clinical Isolates; assay: as above; type: cell-based; conditions: 78 isolates

## N[C@@H]1CCCCN(c2c(F)cc3c(=O)c(C(=O)O)cn(C4CC4)c3c2Cl)C1 [Compound IV]
[1]
  MIC90 Geometric Mean: ≦0.06 μg/ml
  MIC90 Range: ≦0.06 μg/ml
  MIC90 Value: ≦0.06 μg/ml
[2]
  MIC90 Geometric Mean: 5.28 µg/mL (≈ 13.4 µM)
  MIC90 Range: 0.5 to 32 µg/mL
  MIC90 Value: 32 µg/mL (≈ 81.3 µM)
GM-resistant S. aureus
  MIC90 Geometric Mean: 0.65 µg/mL (≈ 1.65 µM)
  MIC90 Range: ≦0.006-8 μg/ml
  MIC90 Value: 4 µg/mL (≈ 10.2 µM)
[3]
  MIC90 Geometric Mean: 11.3 µg/mL (≈ 28.7 µM)
  MIC90 Range: 4 to 32 µg/mL
  MIC90 Value: 16 µg/mL (≈ 40.6 µM)
OFLX-resistant S. aureus
  MIC90 Geometric Mean: 2.14 µg/mL (≈ 5.43 µM)
  MIC90 Range: 0.5 to 8 µg/mL
  MIC90 Value: 8 µg/mL (≈ 20.3 µM)
[4]
  MIC90 Geometric Mean: 0.10 µg/mL (≈ 0.254 µM)
  MIC90 Range: ≦0.06-0.13 μg/ml
  MIC90 Value: 0.13 µg/mL (≈ 0.33 µM)
[5]; S. aureus (ATCC 33591)
  MIC90: 0.025 µg/mL (≈ 0.0635 µM)
[5]; S. aureus (ATCC 33592)
  MIC90: 0.012 µg/mL (≈ 0.0305 µM)
[5]; S. aureus (ATCC 33593)
  MIC90: 0.025 µg/mL (≈ 0.0635 µM)
[5]; S. aureus (No. 395)
  MIC90: 0.025 µg/mL (≈ 0.0635 µM)
[5]; S. aureus (No. 415)
  MIC90: 0.012 µg/mL (≈ 0.0305 µM)
[5]; S. aureus (No. 419)
  MIC90: 0.025 µg/mL (≈ 0.0635 µM)
[5]; S. aureus (No. 420)
  MIC90: 0.012 µg/mL (≈ 0.0305 µM)
[5]; S. aureus (No. 421)
  MIC90: 0.025 µg/mL (≈ 0.0635 µM)
[6]; S. aureus (ATCC 11632)
  MIC90: 0.025 µg/mL (≈ 0.0635 µM)
[6]; S. aureus (ATCC 13301)
  MIC90: 0.012 µg/mL (≈ 0.0305 µM)
[7]
  MIC90 Geometric Mean: 4.595 µg/mL (≈ 11.7 µM)
  MIC90 Value: >8 µg/mL
[8]
  MIC90 Geometric Mean: 0.044 µg/mL (≈ 0.112 µM)
  MIC90 Range: 0.015 to 0.25 µg/mL
  MIC90 Value: 0.12 µg/mL (≈ 0.305 µM)
[9]
  MIC90 Geometric Mean: 0.027 µg/mL (≈ 0.0686 µM)
  MIC90 Range: 0.015 to 0.06 µg/mL
  MIC90 Value: 0.03 µg/mL (≈ 0.0762 µM)
[10]
  MIC90 Geometric Mean: 1.542 µg/mL (≈ 3.92 µM)
  MIC90 Range: 0.5 to 8 µg/mL
  MIC90 Value: 8 µg/mL (≈ 20.3 µM)
[11]
  MIC90 Geometric Mean: 0.033 µg/mL (≈ 0.0838 µM)
  MIC90 Range: 0.015 to 1 µg/mL
  MIC90 Value: 0.06 µg/mL (≈ 0.152 µM)
[12]
  MIC90 Geometric Mean: 0.652 µg/mL (≈ 1.66 µM)
  MIC90 Range: 0.03 to 2 µg/mL
  MIC90 Value: 2 µg/mL (≈ 5.08 µM)
[13]
  MIC90 Geometric Mean: 1.587 µg/mL (≈ 4.03 µM)
  MIC90 Range: 1 to 4 µg/mL
[14]
  MIC90 Geometric Mean: 0.397 µg/mL (≈ 1.01 µM)
  MIC90 Value: 8 µg/mL (≈ 20.3 µM)
[15]
  MIC90 Geometric Mean: 1.028 µg/mL (≈ 2.61 µM)
  MIC90 Range: 0.5 to 8 µg/mL
  MIC90 Value: 2 µg/mL (≈ 5.08 µM)
[16]
  MIC90 Geometric Mean: 0.120 µg/mL (≈ 0.305 µM)
  MIC90 Range: 0.06 to 2 µg/mL
  MIC90 Value: 0.12 µg/mL (≈ 0.305 µM)
[17]
  MIC90 Geometric Mean: 0.108 µg/mL (≈ 0.274 µM)
  MIC90 Range: 0.06 to 0.12 µg/mL
  MIC90 Value: 0.12 µg/mL (≈ 0.305 µM)
[18]; Staphylococcus aureus (ATCC 33591)
  MIC90: 0.012 µg/mL (≈ 0.0305 µM)
[18]; Staphylococcus aureus (ATCC 33592)
  MIC90: 0.05 µg/mL (≈ 0.127 µM)
[18]; Staphylococcus aureus (ATCC 33593)
  MIC90: 0.012 µg/mL (≈ 0.0305 µM)
[18]; Staphylococcus aureus (No. 395)
  MIC90: 0.006 µg/mL (≈ 0.0152 µM)
[18]; Staphylococcus aureus (No. 415)
  MIC90: 0.05 µg/mL (≈ 0.127 µM)
[18]; Staphylococcus aureus (No. 419)
  MIC90: 0.1 µg/mL (≈ 0.254 µM)
[18]; Staphylococcus aureus (No. 420)
  MIC90: 0.1 µg/mL (≈ 0.254 µM)
[18]; Staphylococcus aureus (No. 421)
  MIC90: 0.2 µg/mL (≈ 0.508 µM)
[19]
  MIC90: 16 µg/mL (≈ 40.6 µM)
[20]
  MIC90: 32 µg/mL (≈ 81.3 µM)
[21]
  MIC90: 4 µg/mL (≈ 10.2 µM)
[22]
  MIC90: 8 µg/mL (≈ 20.3 µM)
[23]
  MIC90: 0.13 µg/mL (≈ 0.33 µM)
[24]
  MIC90 Range: 0.015 to 2 µg/mL
  MIC90 Value: 0.25 µg/mL (≈ 0.635 µM)
[25]
  MIC90 Range: 0.03 to 0.12 µg/mL
  MIC90 Value: 0.12 µg/mL (≈ 0.305 µM)
